Source: ChEMBL document CHEMBL3885881, “DrugMatrix”

Columns and labels:
Rattus norvegicus [1] = species on record: Rattus norvegicus; assay: DrugMatrix - Regimen: Daily Repeat; format: toxicity, organism-based, Sprague-Dawley; design: regimen Daily Repeat, gender Male, age 6-8 weeks; details: in vivo, po, […], route oral GAVAGE, time 14 day, vehicle 100 % WATER
Rattus norvegicus [2] = species on record: Rattus norvegicus; format: toxicity, organism-based, Sprague-Dawley; details: in vivo, po, 24 h, route oral GAVAGE, time 1 day, vehicle 100 % WATER
Description: DrugMatrix - Regimen: Single

[3] = 0 mg/kg, tissue Blood, dose level Control
[4] = 0 mg/kg, tissue Plasma, dose level Control
[5] = tissue Blood, dose 2.5 mg/Kg, dose level High
[6] = tissue Plasma, dose 2.5 mg/Kg, dose level High
[7] = 0 mg/kg, vehicle control, tissue Blood, dose level Control
[8] = 0 mg/kg, vehicle control, tissue Plasma, dose level Control
[9] = […], tissue Blood, dose 2.5 mg/Kg, dose level High
[10] = […], tissue Plasma, dose 2.5 mg/Kg, dose level High

In the case of MERCURIC CHLORIDE, the “ABSOLUTE BASOPHIL” value (Rattus norvegicus [1]; [3]) is reported as 0 CELLS/uL, the “ABSOLUTE EOSINOPHIL” value (Rattus norvegicus [1]; [3]) is reported as 117.17 CELLS/uL and the “ABSOLUTE MONOCYTE” value (Rattus norvegicus [1]; [3]) is reported as 419 CELLS/uL. For the same sequence, the “ABSOLUTE SEGMENTED NEUTROPHIL” value (Rattus norvegicus [1]; [3]) was 2139.67 CELLS/uL, the BASOPHIL (Rattus norvegicus [1]; [3]) was 0% and the EOSINOPHIL (Rattus norvegicus [1]; [3]) was 0.67%. For the same sequence, the “ERYTHROCYTE COUNT” value (Rattus norvegicus [1]; [3]) was 6.61 x10E6/uL, the HEMATOCRIT (Rattus norvegicus [1]; [3]) was 37.58% and the HEMOGLOBIN (Rattus norvegicus [1]; [3]) was 13.8 G/DL. For the same sequence, the “LEUKOCYTE COUNT” value (Rattus norvegicus [1]; [3]) was 15.45 x10E3/uL, the LYMPHOCYTE (Rattus norvegicus [1]; [3]) was 83% and the “MEAN CORPUSCULAR HEMOGLOBIN” value (Rattus norvegicus [1]; [3]) was 20.87 pg. The “MEAN CORPUSCULAR HEMOGLOBIN CONCENTRATION” value (Rattus norvegicus [1]; [3]) was 36.72 G/DL, the “MEAN CORPUSCULAR VOLUME” value (Rattus norvegicus [1]; [3]) was 56.85 fL and the MONOCYTE (Rattus norvegicus [1]; [3]) was 2.67%. The NEUTROPHIL (Rattus norvegicus [1]; [3]) was 13.67%, the “NUCLEATED RED BLOOD CELLS” value (Rattus norvegicus [1]; [3]) was 0 /100WBC and the “PLATELET COUNT” value (Rattus norvegicus [1]; [3]) was 1108.33 x10E3/uL. For the same sequence, the “ALANINE AMINOTRANSFERASE” value (Rattus norvegicus [1]; [4]) was 56.83 u/L, the “ALKALINE PHOSPHATASE” value (Rattus norvegicus [1]; [4]) was 354.33 u/L and the “ASPARTATE AMINOTRANSFERASE” value (Rattus norvegicus [1]; [4]) was 93.33 u/L. For the same sequence, the “BLOOD UREA NITROGEN” value (Rattus norvegicus [1]; [4]) was 16.67 mg/dL, the “CARBON DIOXIDE” value (Rattus norvegicus [1]; [4]) was 27.83 mmol/L and the CHOLESTEROL (Rattus norvegicus [1]; [4]) was 62.33 mg/dL. The CREATININE (Rattus norvegicus [1]; [4]) was 0.2 mg/dL, the GLUCOSE (Rattus norvegicus [1]; [4]) was 137 mg/dL and the “LACTATE DEHYDROGENASE” value (Rattus norvegicus [1]; [4]) was 407 u/L. The LIPASE (Rattus norvegicus [1]; [4]) was 10.83 u/L, the PHOSPHORUS (Rattus norvegicus [1]; [4]) was 11.45 mg/dL and the POTASSIUM (Rattus norvegicus [1]; [4]) was 6.51 MEQ/L. For the same sequence, the SODIUM (Rattus norvegicus [1]; [4]) was 145.57 MEQ/L, the “TOTAL BILIRUBIN” value (Rattus norvegicus [1]; [4]) was 0.2 mg/dL and the “TOTAL PROTEIN” value (Rattus norvegicus [1]; [4]) was 6.3 G/DL. The “ABSOLUTE BASOPHIL” value (Rattus norvegicus [1]; [5]) was 0 CELLS/uL, the “ABSOLUTE EOSINOPHIL” value (Rattus norvegicus [1]; [5]) was 269 CELLS/uL and the “ABSOLUTE LYMPHOCYTE” value (Rattus norvegicus [1]; [5]) was 14982 CELLS/uL. The “ABSOLUTE MONOCYTE” value (Rattus norvegicus [1]; [5]) was 560.2 CELLS/uL, the “ABSOLUTE SEGMENTED NEUTROPHIL” value (Rattus norvegicus [1]; [5]) was 2068.8 CELLS/uL and the BASOPHIL (Rattus norvegicus [1]; [5]) was 0%. The EOSINOPHIL (Rattus norvegicus [1]; [5]) was 1.6%, the “ERYTHROCYTE COUNT” value (Rattus norvegicus [1]; [5]) was 6.64 x10E6/uL and the HEMATOCRIT (Rattus norvegicus [1]; [5]) was 37.88%. The “LEUKOCYTE COUNT” value (Rattus norvegicus [1]; [5]) was 17.88 x10E3/uL, the LYMPHOCYTE (Rattus norvegicus [1]; [5]) was 83.6% and the “MEAN CORPUSCULAR HEMOGLOBIN” value (Rattus norvegicus [1]; [5]) was 20.94 pg. For the same sequence, the “MEAN CORPUSCULAR HEMOGLOBIN CONCENTRATION” value (Rattus norvegicus [1]; [5]) was 36.7 G/DL, the “MEAN CORPUSCULAR VOLUME” value (Rattus norvegicus [1]; [5]) was 57.06 fL and the MONOCYTE (Rattus norvegicus [1]; [5]) was 3.2%. The NEUTROPHIL (Rattus norvegicus [1]; [5]) was 11.6%, the “NUCLEATED RED BLOOD CELLS” value (Rattus norvegicus [1]; [5]) was 0 /100WBC and the “PLATELET COUNT” value (Rattus norvegicus [1]; [5]) was 1034.6 x10E3/uL. For the same sequence, the “ALANINE AMINOTRANSFERASE” value (Rattus norvegicus [1]; [6]) was 59.6 u/L, the “ALKALINE PHOSPHATASE” value (Rattus norvegicus [1]; [6]) was 375 u/L and the “ASPARTATE AMINOTRANSFERASE” value (Rattus norvegicus [1]; [6]) was 95.2 u/L. For the same sequence, the “BLOOD UREA NITROGEN” value (Rattus norvegicus [1]; [6]) was 17 mg/dL, the “CARBON DIOXIDE” value (Rattus norvegicus [1]; [6]) was 23.4 mmol/L and the CHOLESTEROL (Rattus norvegicus [1]; [6]) was 68 mg/dL. For the same sequence, the CREATININE (Rattus norvegicus [1]; [6]) was 0.22 mg/dL, the GLUCOSE (Rattus norvegicus [1]; [6]) was 151.4 mg/dL and the “LACTATE DEHYDROGENASE” value (Rattus norvegicus [1]; [6]) was 417.8 u/L. The LIPASE (Rattus norvegicus [1]; [6]) was 10.2 u/L, the PHOSPHORUS (Rattus norvegicus [1]; [6]) was 11.36 mg/dL and the POTASSIUM (Rattus norvegicus [1]; [6]) was 6.37 MEQ/L. The SODIUM (Rattus norvegicus [1]; [6]) was 147.12 MEQ/L, the “TOTAL BILIRUBIN” value (Rattus norvegicus [1]; [6]) was 0.18 mg/dL and the “TOTAL PROTEIN” value (Rattus norvegicus [1]; [6]) was 6.74 G/DL. The “URIC ACID” value (Rattus norvegicus [1]; [6]) was 2.42 mg/dL, the “ABSOLUTE EOSINOPHIL” value (Rattus norvegicus [2]; [7]) was 91.83 CELLS/uL and the “ABSOLUTE LYMPHOCYTE” value (Rattus norvegicus [2]; [7]) was 13862.33 CELLS/uL. The “ABSOLUTE MONOCYTE” value (Rattus norvegicus [2]; [7]) was 437.83 CELLS/uL, the “ABSOLUTE SEGMENTED NEUTROPHIL” value (Rattus norvegicus [2]; [7]) was 1358 CELLS/uL and the BASOPHIL (Rattus norvegicus [2]; [7]) was 0%. For the same sequence, the EOSINOPHIL (Rattus norvegicus [2]; [7]) was 0.5%, the “ERYTHROCYTE COUNT” value (Rattus norvegicus [2]; [7]) was 5.12 x10E6/uL and the HEMATOCRIT (Rattus norvegicus [2]; [7]) was 31.77%. For the same sequence, the HEMOGLOBIN (Rattus norvegicus [2]; [7]) was 11.8 G/DL, the “LEUKOCYTE COUNT” value (Rattus norvegicus [2]; [7]) was 15.75 x10E3/uL and the “MEAN CORPUSCULAR HEMOGLOBIN” value (Rattus norvegicus [2]; [7]) was 23.07 pg. The “MEAN CORPUSCULAR HEMOGLOBIN CONCENTRATION” value (Rattus norvegicus [2]; [7]) was 37.17 G/DL, the MONOCYTE (Rattus norvegicus [2]; [7]) was 2.67% and the NEUTROPHIL (Rattus norvegicus [2]; [7]) was 8.5%. The “NUCLEATED RED BLOOD CELLS” value (Rattus norvegicus [2]; [7]) was 0 /100WBC, the “PLATELET COUNT” value (Rattus norvegicus [2]; [7]) was 1113.83 x10E3/uL and the “ALANINE AMINOTRANSFERASE” value (Rattus norvegicus [2]; [8]) was 45.5 u/L. For the same sequence, the “ALKALINE PHOSPHATASE” value (Rattus norvegicus [2]; [8]) was 343.83 u/L, the “ASPARTATE AMINOTRANSFERASE” value (Rattus norvegicus [2]; [8]) was 70.67 u/L and the “BLOOD UREA NITROGEN” value (Rattus norvegicus [2]; [8]) was 13 mg/dL. For the same sequence, the “CARBON DIOXIDE” value (Rattus norvegicus [2]; [8]) was 33 mmol/L, the CHLORIDE (Rattus norvegicus [2]; [8]) was 100.33 MEQ/L and the CHOLESTEROL (Rattus norvegicus [2]; [8]) was 76.67 mg/dL. For the same sequence, the CREATININE (Rattus norvegicus [2]; [8]) was 0.12 mg/dL, the “LACTATE DEHYDROGENASE” value (Rattus norvegicus [2]; [8]) was 116.67 u/L and the LIPASE (Rattus norvegicus [2]; [8]) was 8 u/L. The POTASSIUM (Rattus norvegicus [2]; [8]) was 6.33 MEQ/L, the “TOTAL BILIRUBIN” value (Rattus norvegicus [2]; [8]) was 0.18 mg/dL and the “TOTAL PROTEIN” value (Rattus norvegicus [2]; [8]) was 5.77 G/DL. The “ABSOLUTE EOSINOPHIL” value (Rattus norvegicus [2]; [9]) was 210.67 CELLS/uL, the “ABSOLUTE LYMPHOCYTE” value (Rattus norvegicus [2]; [9]) was 10744.33 CELLS/uL and the “ABSOLUTE MONOCYTE” value (Rattus norvegicus [2]; [9]) was 466.33 CELLS/uL. For the same sequence, the “ABSOLUTE SEGMENTED NEUTROPHIL” value (Rattus norvegicus [2]; [9]) was 1512 CELLS/uL, the BASOPHIL (Rattus norvegicus [2]; [9]) was 0% and the “ERYTHROCYTE COUNT” value (Rattus norvegicus [2]; [9]) was 5.65 x10E6/uL. For the same sequence, the HEMATOCRIT (Rattus norvegicus [2]; [9]) was 34.1%, the HEMOGLOBIN (Rattus norvegicus [2]; [9]) was 12.63 G/DL and the “LEUKOCYTE COUNT” value (Rattus norvegicus [2]; [9]) was 12.93 x10E3/uL. The LYMPHOCYTE (Rattus norvegicus [2]; [9]) was 84.67%, the “MEAN CORPUSCULAR HEMOGLOBIN” value (Rattus norvegicus [2]; [9]) was 22.43 pg and the “MEAN CORPUSCULAR HEMOGLOBIN CONCENTRATION” value (Rattus norvegicus [2]; [9]) was 37.1 G/DL. The “MEAN CORPUSCULAR VOLUME” value (Rattus norvegicus [2]; [9]) was 60.37 fL, the MONOCYTE (Rattus norvegicus [2]; [9]) was 3.33% and the NEUTROPHIL (Rattus norvegicus [2]; [9]) was 10.67%. The “NUCLEATED RED BLOOD CELLS” value (Rattus norvegicus [2]; [9]) was 0 /100WBC, the “PLATELET COUNT” value (Rattus norvegicus [2]; [9]) was 1117 x10E3/uL and the “ALANINE AMINOTRANSFERASE” value (Rattus norvegicus [2]; [10]) was 52.67 u/L. The ALBUMIN (Rattus norvegicus [2]; [10]) was 4.3 G/DL, the “ALKALINE PHOSPHATASE” value (Rattus norvegicus [2]; [10]) was 366 u/L and the “ASPARTATE AMINOTRANSFERASE” value (Rattus norvegicus [2]; [10]) was 77.67 u/L. The “BLOOD UREA NITROGEN” value (Rattus norvegicus [2]; [10]) was 13 mg/dL, the “CARBON DIOXIDE” value (Rattus norvegicus [2]; [10]) was 26 mmol/L and the CHOLESTEROL (Rattus norvegicus [2]; [10]) was 82.67 mg/dL. For the same sequence, the CREATININE (Rattus norvegicus [2]; [10]) was 0.16 mg/dL, the “LACTATE DEHYDROGENASE” value (Rattus norvegicus [2]; [10]) was 175 u/L and the LIPASE (Rattus norvegicus [2]; [10]) was 8 u/L. For the same sequence, the PHOSPHORUS (Rattus norvegicus [2]; [10]) was 12.07 mg/dL, the POTASSIUM (Rattus norvegicus [2]; [10]) was 6.17 MEQ/L and the “TOTAL BILIRUBIN” value (Rattus norvegicus [2]; [10]) was 0.17 mg/dL. The “TOTAL PROTEIN” value (Rattus norvegicus [2]; [10]) was 6.23 G/DL and the “URIC ACID” value (Rattus norvegicus [2]; [10]) was 1.7 mg/dL.
